For experiment [1], the system named is H1N1 (influenza A/New Caledonia/20/99). As to the kind of experiment: microbe, parasite or virus in culture. The experiment is classed as cell-based. The conditions noted are these: H1N1, A549, 48 h.
A further experiment relates to West Nile Virus. As to the kind of experiment: Antiviral effect in infected Huh7 cells, plaque assay on VeroE6. The experiment is classed as cell-based, WNV stain New-York 99. The conditions noted are these: Huh-7, MOI of 0,1 pfu per cell, supernatants 48 h post infection. The protocol:
Compound #18 was tested on other viruses. The NEET protein modulators are capable of inhibiting other viruses such as West Nile Virus, Dengue and Zika with a high efficiency.
Assays were performed with the following strains/serotypes: • DENV serotype 2 strain New Guinea C • ZIKV strain MR766 • WNV stain New-York 99
1×10^5 Huh7 cells were infected with DENV, ZIKV, or WNV at a MOI of 0,1 pfu per cell in presence of the test compound. Two hours post-infection the inoculum was removed and cells washed twice with PBS 1×. Fresh medium containing the test compound was added. Supernatants were harvested 48 h post infection, filtered through a 0.45 μm pore membrane and directly used for plaque assays.
VeroE6 cells were infected with serial dilutions of virus supernatants. Two hours post-infection inoculum was replaced by serum-free MEM medium (Gibco, Life Technologies) containing 1.5% carboxymethyl cellulose (Sigma-Aldrich). At different days post infection (day 3 for WNV, day 4 for ZIKV, day 7 for DENV) cells were fixed by addition of formaldehyde to a final concentration of 5%. Cells were stained with crystal violet solution (1% crystal violet, 10% ethanol in H2O) for 30 min at room temperature and extensively rinsed with H2O. Infectious titers were calculated considering the corresponding dilution factor.

The subject of a further experiment is Dengue. As to the kind of experiment: microbe, parasite or virus in culture. Format: cell-based, DENV serotype 2 strain New Guinea C. As to conditions: Huh-7, 48 h.
A further experiment relates to Zika. As to the kind of experiment: Antiviral effect in infected Huh7 cells, plaque assay on VeroE6. Format: cell-based, ZIKV strain MR766. As to conditions: Zika virus, Huh-7, MOI of 0,1 pfu per cell, supernatants 48 h post infection.
Experiment [2] deals with T1, CISD1 Gene Product (mitoNEET) (Homo sapiens, UniProt Q9NZ45).
T1 sequence (Q9NZ45 33-108 limits assumed): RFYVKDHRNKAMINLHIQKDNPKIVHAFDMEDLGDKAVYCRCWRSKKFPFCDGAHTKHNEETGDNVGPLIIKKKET
As to the kind of experiment: Stability of Fe-S cluster binding of purified NEET protein (absorbance 458 nm). The experiment is classed as biochemical. The protocol: (§1) The modulator effect on the NEET proteins encoded by human CISD1, CISD2, and CISD3 genes by the compounds of the invention has been tested and is reported below. Particularly, the biochemical function of the NEET proteins is measured by the stability of Fe—S cluster binding of the purified NEET proteins.
(§2) The Fe—S cluster binding capacity of NEET proteins is known to be coordinated by four amino-acids in a stretch of 16 (three Cysteine and one Histidine). As the lability of the Fe—S cluster of NEET proteins is sensitive to the environment, cluster stability measurements are one of the measures of interactions of NEET proteins with small molecules and compounds. NEET protein/2Fe-2S cluster stability can be assessed by monitoring the decay in absorbance of its characteristic 458-nm peak (characteristic of the oxidized 2Fe-2S cluster) over time. Each NEET protein (mitoNEET, NAF-1 and Miner 2) was tested for its Fe—S binding in the absence or presence of a compound according to the invention (see table 4 below). The rate of cluster release (time in minutes to achieve 50% loss of bound Fe—S cluster) was compared for each NEET protein in the presence of one of the compounds of the invention (in a 1:3 protein:compound molar ratio) relative to each protein alone.
(§3) At pH 6, all the three NEET proteins (mitoNEET, NAF-1 and Miner 2) have a characteristic rate of loss of the bound Fe—S cluster that can be measured by the decrease of absorbance at wavelength 458 nm over time, using a spectrophotometer. Thus, Bis-Tris buffer (100 mM Bis-Tris pH6, 100 mM Nacl) was used at pH 6 to dilute either DMSO (Blank sample: Bis-Tris Buffer pH 6, 66 μM DMSO), DMSO and one of the three NEET proteins (Control sample: Bis-Tris Buffer pH 6, 66 μM DMSO, 20 μM purified NEET protein) or DMSO, one of the three NEET proteins and a compound of the invention (Test sample: Bis-Tris Buffer pH 6, 66 μM DMSO, 20 μM purified NEET protein, 60 μM compound of the invention).
(§4) A reaction mix containing DMSO diluted in the Bis-Tris Buffer with or without a compound of the invention was prepared. The purified NEET protein was the last component added to the reaction mix which was then aliquoted into 4 replicates in 96 wells plates. The absorbance at wavelength 458 nm was taken at 5 minutes intervals at 37° C. with a spectrofluorimeter. The assay run time for CISD2 gene product (NAF-1) was 500 minutes and 180 minutes for both the CISD1gene product (mitoNEET) and the CISD3 gene product (Miner2).
(§5) In addition to time monitoring, residual bound Fe—S cluster to NEET protein was measured at the final point of the spectrometry assay for each Test sample and compared to the Control sample data (in parenthesis table 4). This residual binding is measured by the differential percentage between the absorbance 458 nm at time zero and the absorbance 458 nm at the end of the experiment (i.e. respectively 500 or 180 minutes as described here above), showing the percentage of NEET protein still able to bind a Fe—S cluster.
(§6) Analysis of the absorbance enables the time for which 50% loss of bound Fe—S cluster is reached (i.e. a 50% absorbance decrease at 458 nm) for each Test sample and each Control sample (in parenthesis table 4) to be determined. The data are then compared to determine whether the compound of the invention stabilizes or destabilizes the NEET protein/Fe—S cluster binding.

Experiment [3] concerns the target T2, CISD2 Gene Product (NAF-1) (Homo sapiens, UniProt Q8N5K1).
T2 sequence (Q8N5K1 57-135 limits assumed): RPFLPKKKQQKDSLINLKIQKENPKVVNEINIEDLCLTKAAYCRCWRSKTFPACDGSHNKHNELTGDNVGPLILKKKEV
The description is as above. As to conditions: NAF-1 20 μM, compound 60 μM. The experiment is classed as biochemical. The protocol:
as §1, §2, §3, §4, §5, §6

Experiment [4] has as its target T3, CISD3 Gene Product (Miner2) (Homo sapiens, UniProt P0C7P0).
T3 sequence (P0C7P0 15-127): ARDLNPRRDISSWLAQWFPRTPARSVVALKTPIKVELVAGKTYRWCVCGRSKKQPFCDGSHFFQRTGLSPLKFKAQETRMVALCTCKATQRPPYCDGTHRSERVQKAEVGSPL
The description is as above. Format: biochemical. The protocol:
as §1, §2, §3, §4, §5, §6

The next experiment has as its system LXFL 1121. In words: Cytotoxicity, propidium iodide based monolayer assay. As to conditions: 96 h; LXFL 1121 lung large cell carcinoma, four days of treatment, T/C=50%; read-out: Absolute IC50. The method, then: (§7) The cytotoxicity was tested for compounds of the invention on five different cell-lines, namely LXFL 1121, MAXF 401, MMXF L-636, PRXF PC-3M and UXF 1138 which are respectively lung large cell carcinoma, breast adeno carcinoma, multiple myeloma, prostate adeno carcinoma and uterine sarcoma.
(§8) A working stock solution of the test compounds was prepared in DMSO at a concentration of 33 mM or 8.25 mM, and small aliquots were stored at −20° C. On each day of an experiment, a frozen aliquot of the working stock solution was thawed and stored at room temperature prior to and during treatment.
(§9) All liquid handling steps were performed using the Tecan Freedom EVO 200 platform. First, serial 2-fold dilutions of the 33 mM DMSO working stock solution were done in DMSO. The DMSO dilutions were then diluted 1:22 into cell culture medium in an intermediate dilution plate. Finally, 10 μl taken from the intermediate dilution plate were transferred to 140 μl/well of the final assay plate. Thus, the DMSO serial dilutions were diluted 1:330 with cell culture medium, and the DMSO concentration in the assay was 0.3% v/v.
Cell lines were routinely passaged once or twice weekly and maintained in culture for up to 20 passages. […]
A modified propidium iodide (PI) based monolayer assay was used to assess the anti-cancer activity of the compounds. Briefly, cells were harvested from exponential phase cultures, counted and plated in 96 well flat-bottom microtiter plates at a cell density of 4,000 to 40,000 cells/well dependent on the cell line's growth rate. […] After an incubation period of 1-2 hours at room temperature, fluorescence (FU) was measured using the Enspire Multimode Plate Reader (excitation λ=530 nm, emission k=620 nm) to quantify the amount of attached viable cells.
Drug effects were expressed in terms of the percentage of the fluorescence signal, obtained by comparison of the mean signal in the treated wells with the mean signal of the untreated controls (expressed by the test-versus-control value, T/C−value [%]): […]

In another experiment the test system is MAXF 401. The description is as above. Format: cell-based. The conditions noted are these: Homo sapiens, MAXF401, 96 h; MAXF 401 breast adeno carcinoma, four days of treatment, T/C=50%; read-out: Absolute IC50. The method, then: as §7, §8, §9
(§10) Cell lines were routinely passaged once or twice weekly and maintained in culture for up to 20 passages. Most cell lines were grown at 37° C. in a humidified atmosphere with 5% CO2 in RPMI 1640 medium (25 mM HEPES, with L-glutamine, #FG1385, Biochrom, Berlin, Germany) supplemented with 10% (v/v) fetal calf serum (Sigma, Taufkirchen, Germany) and 0.05 mg/mL gentamicin (Life Technologies, Karlsruhe, Germany).
(§11) A modified propidium iodide (PI) based monolayer assay was used to assess the anti-cancer activity of the compounds. Briefly, cells were harvested from exponential phase cultures, counted and plated in 96 well flat-bottom microtiter plates at a cell density of 4,000 to 40,000 cells/well dependent on the cell line's growth rate. The individual seeding density for each cell line ensure exponential growth conditions over the whole or at least the bigger part of the treatment period. After a 24 h recovery period, to allow the cells to resume exponential growth, 10 μl of culture medium (6 control wells/cell line/plate) or of culture medium with test compounds were added. Compounds were applied at ten concentrations in 2-fold increments in duplicates up to 25 μM or 100 μM and treatment continued for four days. After four days of treatment, cells were next washed with 200 μl PBS to remove dead cells and debris, then 200 μl of a solution containing 7 μg/ml propidium iodide (PI) and 0.1% (v/v) Triton X-100 was added. After an incubation period of 1-2 hours at room temperature, fluorescence (FU) was measured using the Enspire Multimode Plate Reader (excitation λ=530 nm, emission k=620 nm) to quantify the amount of attached viable cells.
(§12) Drug effects were expressed in terms of the percentage of the fluorescence signal, obtained by comparison of the mean signal in the treated wells with the mean signal of the untreated controls (expressed by the test-versus-control value, T/C−value [%]):
(§13) [formula] IC values reported reflect the concentration of the test compound that achieves T/C=50%. Calculation was done by 4 parameter non-linear curve fit.

The next experiment has as its system PRXF PC-3M. The experiment is described as above. Format: cell-based. As to conditions: Homo sapiens, 96 h; PRXF PC-3M prostate adeno carcinoma, four days of treatment, T/C=50%; read-out: Absolute IC50. The protocol: as §7, §8, §9, §10, §11, §12, §13
A further experiment deals with UXF 1138. Described as above. The conditions noted are these: 96 h; UXF 1138 uterine sarcoma, four days of treatment, T/C=50%; read-out: Absolute IC50. Format: cell-based. The protocol: as §7, §8, §9, §10, §11, §12, §13
Where [5] appears, read: time to 50% cluster loss changed by more than 25% compared to the Control sample, at the concentrations tested.

What is called IC50 is the concentration that inhibits the measured activity by half.

Regarding `COc1ccc(C(=O)Nc2sc3c(c2C(=O)O)CCC(C)(C)C3)cc1OC` [Compound #18, 2-[(3,4-Dimethoxybenzoyl)amino]-6,6-dimethyl-5,7-dihydro-4H-benzothiophene-3-carboxylic acid], the 50% inhibitory concentration (IC50) in [1] turned out to be 0.05 µM; in the experiment with West Nile Virus, 2.5 µM; in the experiment on Dengue, 5 µM; in the experiment with Zika it was 3 µM. The “Residual cluster bound at end of experiment (Percentage Absorbance 458 nm at time zero)” value in [2] (mitoNEET 20 μM, compound 60 μM, pH 6, at 180 minutes, vehicle control 16%) was 62% (16%); in [3] (pH 6, at 500 minutes, vehicle control 3%), 42% (3%); in [4] (CISD3 gene product 20 μM, compound 60 μM, pH 6, at 180 minutes, vehicle control 11%), 70% (11%). Besides, the “Stabiliser or destabiliser of Fe-S cluster binding by CISD1 Gene Product (mitoNEET)” value in experiment [2] (setting [5]) is “stabilisers”. The “Time (in minutes) to achieve 50% loss of bound cluster (Absorbance 458 nm)” value in [3] (pH 6, 37° C., run time 500 minutes, vehicle control 310 or 210) is 425 (310) minutes. For the same compound, in [4] (setting [5]), the “Stabiliser or destabiliser of Fe-S cluster binding by CISD3 Gene Product (Miner2)” value is listed as “Stabilisers”.

On to `CC1(C)CCc2c(sc(NC(=O)c3ccc(N4CCOCC4)cc3)c2C(=O)O)C1` [Compound #22, 6,6-Dimethyl-2-[(4-morpholinobenzoyl)amino]-5,7-dihydro-4H-benzothiophene-3-carboxylic acid], for which the IC50 in experiment [1] was determined as 0.12 µM; with LXFL 1121, 0.546 µM; in the experiment with MAXF 401 it was 0.539 µM; in the experiment on PRXF PC-3M, 0.705 µM; in the experiment on UXF 1138, 0.332 µM.

The record behind these values is patent US11492347B2 (ENYO PHARMA, priority 2018, dated 2022).
